Assay results taken from ChEMBL document CHEMBL1201862, “PubChem BioAssay data set” (2004).
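Growth conditions: 96-well plates. Treatment: test compound, 48 hours, 5 concentrations. Analysis: linear interpolation between bracketing concentrations; unreached endpoints set to highest concentration. The concentration for 50% growth inhibition is given as GI50.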 Calls of active or inactive are those of the source. Rule as the data show it: active = GI50 up to about 1.1 µM and inactive = higher.

Tests used:
Experiment in all cases: NCI anticancer screen, dose series, 48 h
[1] = test system: 786-0
[2] = test system: COLO 205
[3] = test system: LOX IMVI
[4] = test system: NCI-H226
[5] = test system: OVCAR-3
[6] = test system: SK-OV-3
[7] = test system: SNB-19
[8] = test system: SW-620
[9] = test system: TK-10
[10] = test system: UO-31
[11] = test system: HOP-62
[12] = test system: NCI-H460
[13] = test system: SR
[14] = test system: SK-MEL-2

| Compound | GI50 [1] | GI50 [2] | GI50 [3] | GI50 [4] | GI50 [5] | GI50 [6] | GI50 [7] | GI50 [8] | GI50 [9] | GI50 [10] | GI50 [11] | GI50 [12] | GI50 [13] | GI50 [14] |
| --- | --- | --- | --- | --- | --- | --- | --- | --- | --- | --- | --- | --- | --- | --- |
| CN[C@@H](C)[C@H](NC)c1ccccc1 | > 100 µM (inactive) | > 100 µM (inactive) | > 100 µM (inactive) | > 100 µM (inactive) | > 100 µM (inactive) | > 100 µM (inactive) | > 100 µM (inactive) | > 100 µM (inactive) | > 100 µM (inactive) | > 100 µM (inactive) | – | – | – | – |
| Cc1cccc(C(C)(C)C)c1NC(=O)C(=O)C(C(=O)/C=C\c1ccccc1)C1OC(=O)c2ccccc21 (stereo not drawn) | > 100 µM (inactive) | > 100 µM (inactive) | > 100 µM (inactive) | > 100 µM (inactive) | > 100 µM (inactive) | > 100 µM (inactive) | > 100 µM (inactive) | > 100 µM (inactive) | > 100 µM (inactive) | > 100 µM (inactive) | > 100 µM (inactive) | > 100 µM (inactive) | > 100 µM (inactive) | – |
| CC12CCC3(C1)[C@H](CC2=O)C[C@@H](OC(=O)c1ccccc1)C1C(C)(CO)CCC[C@@]13C (stereo partly drawn) | 1.82 µM (inactive) | 4.35 µM (inactive) | 2.17 µM (inactive) | 1.6 µM (inactive) | 0.24 µM (active) | 17.1 µM (inactive) | 5.86 µM (inactive) | 2.37 µM (inactive) | > 21.9 µM (inactive) | 4.15 µM (inactive) | 5.41 µM (inactive) | 1.05 µM (active) | – | 8.32 µM (inactive) |
| CCCCCCCCCCCC(=O)OCC1OC(n2cc(F)c(=O)[nH]c2=O)C(NC(=O)OCc2ccccc2)C(OC(=O)CCCCCCCCCCC)C1O (stereo not drawn) | > 100 µM (inactive) | > 100 µM (inactive) | > 100 µM (inactive) | > 100 µM (inactive) | > 100 µM (inactive) | > 100 µM (inactive) | > 100 µM (inactive) | > 100 µM (inactive) | > 100 µM (inactive) | > 100 µM (inactive) | > 100 µM (inactive) | > 100 µM (inactive) | > 100 µM (inactive) | > 100 µM (inactive) |
| CN(C)c1ccc(/C=C2\CNC/C(=C\c3ccc(N(C)C)cc3)C2=O)cc1 | 16.8 µM (inactive) | 45.1 µM (inactive) | 18.8 µM (inactive) | 32.7 µM (inactive) | 38.8 µM (inactive) | > 100 µM (inactive) | – | – | 33.3 µM (inactive) | 36.2 µM (inactive) | > 100 µM (inactive) | 15.5 µM (inactive) | 8.81 µM (inactive) | – |
| COC(=O)C(C(=O)C(=O)Nc1c(C)cccc1C)c1cnc2ccccc2n1 (stereo not drawn) | > 100 µM (inactive) | > 100 µM (inactive) | > 100 µM (inactive) | > 100 µM (inactive) | – | > 100 µM (inactive) | > 100 µM (inactive) | > 100 µM (inactive) | > 100 µM (inactive) | > 100 µM (inactive) | – | > 100 µM (inactive) | > 100 µM (inactive) | > 100 µM (inactive) |
| CCCCCCCCCCCC(=O)OC(COC(N)=O)COc1ccc(Cl)cc1 (stereo not drawn) | 35.8 µM (inactive) | 17 µM (inactive) | 23.2 µM (inactive) | 17.3 µM (inactive) | 16.3 µM (inactive) | > 100 µM (inactive) | 33.3 µM (inactive) | 24.3 µM (inactive) | 30.6 µM (inactive) | 32.9 µM (inactive) | 25 µM (inactive) | 23.7 µM (inactive) | – | 24.5 µM (inactive) |
| CN(C)/C(=N\C#N)NCc1ccccc1 | > 100 µM (inactive) | > 100 µM (inactive) | > 100 µM (inactive) | – | > 100 µM (inactive) | > 100 µM (inactive) | > 100 µM (inactive) | > 100 µM (inactive) | > 100 µM (inactive) | > 100 µM (inactive) | > 100 µM (inactive) | > 100 µM (inactive) | – | > 100 µM (inactive) |
